Measured values: patent publication US20160176867A1, “MODIFIED BET-PROTEIN-INHIBITING DIHYDROQUINOXALINONES AND DIHYDROPYRIDOPYRAZINONES” (BAYER PHARMA AKTIENGESELLSCHAFT, priority 2013, published 2016)

Legend:
[1] = target: T1, BRD4 bromo domain 2 [BRD4(2)] (Homo sapiens, UniProt O60885); assay: BRD4/acetylated peptide H4 binding assay (TR-FRET), BRD4 bromo domain 2; settings: inhibition of BRD4(2)/Ac-H4 peptide interaction
T1 construct: N-terminally His6-tagged BRD4(2) (amino acids 357-445); made in house; host or cells: E. coli
Outline: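 IC50 comes from a 4-parameter fit over 0.1 nM–20 μM in duplicate, normalised to DMSO and no-protein controls. TR-FRET (Eu-streptavidin/anti-His-XL665) tracks His-tagged BRD4(2) 357-445 at 100 nM binding Ac-H4 peptide in HEPES pH 7.5 buffer. Incubation was 1 h at 22 °C, then at 4 °C ≥3 h up to overnight.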

[2] = target: T2, BRD4 bromo domain 1 [BRD4(1)] (Homo sapiens, UniProt O60885); assay: BRD4/acetylated peptide H4 binding assay (TR-FRET), BRD4 bromo domain 1; settings: inhibition of BRD4(1)/Ac-H4 peptide interaction
T2 construct: N-terminally His6-tagged BRD4(1) (amino acids 67-152); made in house; host or cells: E. coli
Outline: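 TR-FRET (665/620 nm ratio) measuring displacement of biotinylated tetra-acetylated H4 peptide from His6-BRD4(1) (aa 67-152, E. coli; typically 10 nM) at pH 7.5. Compound (11 concentrations, 0.1 nM–20 μM, duplicates) was preincubated 10 min at 22°C, then 1 h at 22°C and ≥3 h at 4°C; IC50 from 4-parameter fit normalized to DMSO and no-BRD4 controls.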

IC50 [1] | IC50 [2] | SMILES
598 nM | 208 nM | C[C@@H]1C(=O)N(C)c2ccc(Nc3cccc(C(=O)N(C)C)c3)cc2N1C1CCN(C(=O)OC(C)(C)C)CC1 [Example 105, tert-butyl 4-[(2R)-7-{[3-(dimethylcarbamoyl)phenyl]amino}-2,4-dimethyl-3-oxo-3,4-dihydroquinoxalin-1(2H)-yl]piperidine-1-carboxylate]
179 nM | 503 nM | CC(C)N1c2nc(Nc3cccc(C(=O)NCCN(C)C)c3)ccc2N(C)C(=O)[C@H]1C [Example 97, N-[2-(dimethylamino)ethyl]-3-{[(3R)-4-isopropyl-1,3-dimethyl-2-oxo-1,2,3,4-tetrahydropyrido[2,3-b]pyrazin-6-yl]amino}benzamide]
337 nM | 218 nM | COc1ccc(Nc2ccc3c(n2)N(C2CCOCC2)[C@H](C)C(=O)N3C)cc1C(=O)N[C@H]1CC[C@H](N2CCN(CC3CC3)CC2)CC1 [Example 82, N-{trans-4-[4-(cyclo-propylmethyl)piperazin-1-yl]cyclohexyl}-5-{[(3R)-1,3-dimethyl-2-oxo-4-(tetrahydro-2H-pyran-4-yl)-1,2,3,4-tetrahydropyrido[2,3-b]pyrazin-6-yl]amino}-2-methoxybenzamide]
332 nM | 430 nM | COc1ccc(C(=O)N[C@H]2CC[C@@H](N3CCN(C4CC4)CC3)CC2)cc1Nc1ccc2c(n1)N(C1CCOCC1)[C@H](C)C(=O)N2C [Example 90, N-[cis-4-(4-cyclopropylpiperazin-1-yl)cyclohexyl]-3-{[(3R)-1,3-dimethyl-2-oxo-4-(tetrahydro-2H-pyran-4-yl)-1,2,3,4-tetrahydropyrido[2,3-b]pyrazin-6-yl]amino}-4-methoxybenzamide]
60 nM | 129 nM | COc1ccc(C(=O)N2CCN(C)CC2)cc1Nc1ccc2c(n1)N(C1CCOCC1)[C@H](C)C(=O)N2C [Example 17, (3R)-6-({2-Methoxy-5-[(4-methylpiperazin-1-yl)carbonyl]phenyl}amino)-1,3-dimethyl-4-(tetrahydro-2H-pyran-4-yl)-3,4-dihydropyrido[2,3-b]pyrazin-2(1H)-one]
462 nM | 555 nM | C[C@@H]1C(=O)N(C)c2ccc(Nc3cccc(C(=O)NC4CCN(C)CC4)c3)nc2N1C1CCN(C(=O)OC(C)(C)C)CC1 [Example 100, tert-butyl 4-[(3R)-1,3-dimethyl-6-({3-[(1-methylpiperidin-4-yl)carbamoyl]phenyl}amino)-2-oxo-2,3-dihydropyrido[2,3-b]pyrazin-4(1H)-yl]piperidine-1-carboxylate]
117 nM | 385 nM | C[C@@H]1C(=O)N(C)c2ccc(Nc3cccc(C(=O)N(C)C)c3)cc2N1Cc1ccccc1 [Example 107, 3-{[(3R)-4-benzyl-1,3-dimethyl-2-oxo-1,2,3,4-tetrahydroquinoxalin-6-yl]amino}-N,N-dimethylbenzamide]
1120 nM | 521 nM | C[C@@H]1C(=O)N(C)c2ccc(Nc3cccc(C(=O)NC4CCN(C)CC4)c3)cc2N1C1CCOCC1 [Example 109, 3-{[(3R)-1,3-dimethyl-2-oxo-4-(tetrahydro-2H-pyran-4-yl)-1,2,3,4-tetrahydroquinoxalin-6-yl]amino}-N-(1-methylpiperidin-4-yl)benzamide]
166 nM | 208 nM | C[C@@H]1C(=O)N(C)c2ccc(Nc3cccc(S(=O)(=O)N(C)C)c3)nc2N1C1CCN(C(=O)OC(C)(C)C)CC1 [Example 61, tert-butyl 4-[(3R)-6-{[3-(dimethylsulphamoyl)-phenyl]amino}-1,3-dimethyl-2-oxo-2,3-dihydropyrido[2,3-b]pyrazin-4(1H)-yl]piperidine-1-carboxylate]
197 nM | 271 nM | Cc1cccc(N2c3nc(Nc4cccc(S(=O)(=O)N5CCOCC5)c4)ccc3N(C)C(=O)C2C)c1 (centres unmarked) [Example 64, 1,3-dimethyl-4-(3-methylphenyl)-6-{[3-(morpholin-4-ylsulphonyl)phenyl]-amino}-3,4-dihydropyrido[2,3-b]pyrazin-2(1H)-one]
687 nM | 788 nM | C[C@@H]1C(=O)N(C)c2ccc(Nc3cccc(C(=O)N[C@H]4CC[C@H](N5CCN(CC6CC6)CC5)CC4)c3)nc2N1C1CCN(C(=O)OC(C)(C)C)CC1 [Example 102, tert-butyl 4-[(3R)-6-{[3-({trans-4-[4-(cyclopropl-methyl)piperazin-1-yl]cyclohexyl}carbamoyl)phenyl]amino}-1,3-dimethyl-2-oxo-2,3-dihydropyrido[2,3-b]pyrazin-4(1H)-yl]piperidine-1-carboxylate]
39 nM | 22 nM | CCN(CC)S(=O)(=O)c1cccc(Nc2ccc3c(n2)N(C2CCOCC2)[C@H](C)C(=O)N3C)c1 [Example 32, 3-{[(3R)-1,3-dimethyl-2-oxo-4-(tetrahydro-2H-pyran-4-yl)-1,2,3,4-tetrahydropyrido[2,3-b]pyrazin-6-yl]amino}-N,N-diethylbenzene-sulphonamide]
227 nM | 218 nM | COc1ccc(Nc2ccc3c(n2)N(C2CCOCC2)[C@H](C)C(=O)N3C)cc1C(=O)N1CCN(C)CC1 [Example 83, (3R)-6-({4-methoxy-3-[(4-methylpiperazin-1-yl)carbonyl]phenyl}-amino)-1,3-dimethyl-4-(tetrahydro-2H-pyran-4-yl)-3,4-dihydropyrido[2,3-b]pyrazin-2(1H)-one]
